Measured values published in the supplement of paper PMC10307832.

How the values were obtained:
Test in all cases: relative viability (nuclei count vs DMSO), 5 days (fraction); higher = more cells survive
BI-2536 + Alpelisib = compound: CC[C@@H]1C(=O)N(C)c2cnc(Nc3ccc(C(=O)NC4CCN(C)CC4)cc3OC)nc2N1C1CCCC1 [BI-2536] + Cc1nc(NC(=O)N2CCC[C@H]2C(N)=O)sc1-c1ccnc(C(C)(C)C(F)(F)F)c1 [Alpelisib] (partner 2 µM)
How it was run: (§1)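 Five library-drug doses in √10 steps were combined with a fixed anchor-drug dose, or a single drug was given alone, by pin tool to lung cancer cell lines in 1536-well plates the day after seeding. Nuclei were stained and counted after 5 days. Relative viability is the nuclei count in treated wells over that in vehicle wells, taken as the median of duplicate plates.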

[1] = compound: CC1CC(=O)N(C2=CN=C(N=C2N1C3CCCC3)NC4=C(C=C(C=C4)C(=O)NC5CCN(CC5)C)OC)C [NPK76-II-72-1] + N=C(N)NC(=N)NCCc1ccccc1 [Phenformin] (partner 250 µM)
How it was run: as §1

[2] = compound: CC1CC(=O)N(C2=CN=C(N=C2N1C3CCCC3)NC4=C(C=C(C=C4)C(=O)NC5CCN(CC5)C)OC)C [NPK76-II-72-1] + CC1(C)CCC(c2ccc(Cl)cc2)=C(CN2CCN(c3ccc(C(=O)NS(=O)(=O)c4ccc(N[C@H](CCN5CCOCC5)CSc5ccccc5)c(S(=O)(=O)C(F)(F)F)c4)cc3)CC2)C1 [Navitoclax] (partner 0.5 µM)
How it was run: as §1

BI-2536 + Luminespib = compound: CC[C@@H]1C(=O)N(C)c2cnc(Nc3ccc(C(=O)NC4CCN(C)CC4)cc3OC)nc2N1C1CCCC1 [BI-2536] + CCNC(=O)c1noc(-c2cc(C(C)C)c(O)cc2O)c1-c1ccc(CN2CCOCC2)cc1 [Luminespib] (partner 0.01 µM)
How it was run: as §1

Cell Line | relative viability (BI-2536 + Alpelisib; first compound 0.01 µM) | relative viability (BI-2536 + Alpelisib; first compound 0.03162 µM) | relative viability (BI-2536 + Alpelisib; first compound 0.1 µM) | relative viability (BI-2536 + Alpelisib; first compound 0.3162 µM) | relative viability (BI-2536 + Alpelisib; first compound 1 µM) | relative viability ([1]; first compound 0.01 µM) | relative viability ([1]; first compound 0.03162 µM) | relative viability ([1]; first compound 0.1 µM) | relative viability ([1]; first compound 0.3162 µM) | relative viability ([1]; first compound 1 µM) | relative viability ([2]; first compound 0.03162 µM) | relative viability ([2]; first compound 0.1 µM) | relative viability ([2]; first compound 1 µM) | relative viability ([2]; first compound 0.01 µM) | relative viability ([2]; first compound 0.3162 µM) | relative viability (BI-2536 + Luminespib; first compound 0.01 µM) | relative viability (BI-2536 + Luminespib; first compound 0.03162 µM) | relative viability (BI-2536 + Luminespib; first compound 0.1 µM) | relative viability (BI-2536 + Luminespib; first compound 0.3162 µM) | relative viability (BI-2536 + Luminespib; first compound 1 µM)
HCC-78 | 0.357 | 0.295 | 0.379 | 0.211 | 0.164 | 0.695 | 0.684 | 0.684 | 0.692 | 0.665 | 0.846 | 0.719 | 0.732 | – | – | – | – | – | – | –
HCC-366 | 0.469 | 0.344 | 0.273 | 0.0093 | 0.0141 | 0.593 | 0.669 | 0.65 | 0.559 | 0.607 | 1.11 | 1.07 | 0.978 | 1.09 | 1.13 | – | – | – | – | –
HCC-827 | 0.934 | 1.03 | 0.867 | 0.282 | 0.243 | 0.407 | 0.448 | 0.407 | 0.409 | 0.404 | 1.06 | 0.978 | 1.12 | 1.01 | 0.993 | 0.801 | 0.35 | 0.401 | 0.203 | 0.138
HOP-62 | 1.04 | 1.06 | 0.922 | 0.176 | 0.104 | 0.622 | 0.648 | 0.615 | 0.637 | 0.683 | 1.12 | 0.947 | 0.954 | 0.973 | 1.06 | 0.949 | 0.84 | 0.419 | 0.121 | 0.188
IA-LM | 0.729 | 0.652 | 0.588 | 0.0728 | 0.0917 | – | – | – | – | – | 1.17 | 0.67 | 1 | 0.752 | 0.733 | – | – | – | – | –
LC-2-ad | 0.521 | 0.348 | 0.0935 | 0.0735 | 0.123 | 0.531 | 0.607 | 0.558 | 0.494 | 0.665 | 0.501 | 0.599 | 0.541 | 0.469 | 0.395 | 0.897 | 0.319 | 0.325 | 0.289 | 0.375
LCLC-97TM1 | 0.197 | 0.219 | 0.214 | 0.129 | 0.141 | 0.401 | 0.464 | 0.388 | 0.398 | 0.416 | 0.392 | 0.52 | 0.488 | – | 0.439 | 0.785 | 0.641 | 0.504 | 0.14 | 0.175
LCLC-103H | 1.05 | 0.925 | 0.929 | 0.556 | 0.125 | 0.273 | 0.363 | 0.342 | 0.329 | 0.342 | – | – | – | – | – | 0.95 | 1.05 | 0.842 | 0.188 | 0.184
LK-2 | 1.14 | 0.318 | 0.374 | 0.222 | 0.282 | 0.379 | 0.583 | 0.504 | 0.206 | 0.561 | 0.83 | 0.961 | 0.879 | 0.769 | 0.723 | 0.184 | 0.176 | 0.155 | 0.177 | 0.176
LOU-NH91 | 0.764 | 0.602 | 0.657 | 0.359 | 0.317 | 0.621 | 0.709 | 0.706 | 0.563 | 0.884 | 0.66 | 0.666 | 0.833 | 0.635 | 0.517 | 0.372 | 0.345 | 0.306 | 0.279 | 0.267
NCI-H358 | 0.995 | 0.537 | 0.154 | 0.158 | 0.159 | 0.324 | 0.382 | 0.32 | – | 0.372 | – | – | – | – | – | 0.414 | 0.283 | 0.398 | 0.127 | 0.0998
NCI-H522 | – | – | – | – | – | 0.557 | 0.732 | 0.639 | 0.563 | 0.699 | – | – | – | – | – | 1.21 | 1.08 | 1.04 | 0.375 | 0.318
NCI-H650 | 1.02 | 0.778 | 0.437 | 0.218 | 0.127 | 0.441 | 0.457 | 0.454 | 0.381 | 0.486 | – | – | – | – | – | 0.728 | 0.622 | 0.21 | 0.13 | 0.103
NCI-H661 | 0.149 | 0.577 | 0.619 | 0.216 | 0.24 | 0.278 | 0.255 | 0.282 | 0.279 | 0.245 | – | – | – | – | – | 0.944 | 0.936 | 0.347 | 0.296 | 0.257
NCI-H1299 | 0.952 | 1.15 | 1 | 0.278 | 0.339 | – | – | – | – | – | 1.05 | 1.01 | 1.04 | 1.04 | 1.03 | – | – | – | – | –
NCI-H1563 | 0.858 | 0.933 | 0.928 | 0.598 | 0.583 | 0.686 | 0.606 | 0.637 | 0.656 | 0.697 | – | – | – | – | – | 0.483 | 0.547 | 0.545 | 0.507 | 0.372
NCI-H1623 | – | – | – | – | – | 0.562 | 0.563 | 0.622 | 0.324 | 0.622 | – | – | – | – | – | 0.402 | 0.508 | 0.374 | 0.405 | 0.388
NCI-H1650 | – | – | – | – | – | 0.361 | 0.374 | 0.468 | 0.349 | 0.396 | 1.12 | 1.23 | 1.07 | 1.08 | 1.12 | 0.188 | 0.166 | 0.21 | 0.183 | 0.198
NCI-H1703 | 0.347 | 0.247 | 0.279 | 0.0951 | 0.123 | – | – | – | – | – | 1.59 | 1.27 | 1.38 | 0.961 | 1.19 | – | – | – | – | –
NCI-H2342 | – | – | – | – | – | 0.606 | 0.472 | 0.675 | 0.394 | 0.623 | – | – | – | – | – | 0.883 | 0.661 | 0.676 | 0.38 | 0.369
SW 900 | – | – | – | – | – | 0.559 | 0.73 | 0.657 | 0.664 | 0.699 | – | – | – | – | – | 0.189 | 0.186 | 0.173 | 0.198 | 0.201
